Measured values: patent US20240182415A1, “ACETAL, KETAL, AND […] OF PSILOCIN, PROCESSES FOR THE PREPARATION THEREOF, AND METHODS OF USE” (Invyxis, Inc., priority 2022, published 2024)
Read-outs that look alike come from different tables or passages of the source.

Key:
[1] = Single-dose oral pharmacokinetics in mice (plasma and brain); assay type: in vivo, C57BL6 mice; settings: PO 3.0 mg/kg
Experimental: The single-dose pharmacokinetics of test compounds were analyzed relative to control (psilocin) in C57BL6 mice via oral (PO) administration. Test compound was dissolved in DMSO and transferred to a 15-mL tube, followed by addition of Tween-80, PEG-400, and water to final volume. The resulting formulation (0.3 mg/mL compound, in DMSO (1%), Tween-80 (5%), and PEG-400 (25%) in water (69%)) was vortexed for 2 min. and mixed by inversion.
Male C57BL6 mice (3× per compound, (at a weight ˜20 g)) received a single dose (oral) of test compound at 3.0 mg/kg. Blood samples were collected pre-dose and at 0.083, 0.25, 0.5, 1, 2, 4, 8, 24-hour post-dose to yield approximately 20 μL of pooled plasma (3× mice) per time point. Brain tissues were collected at 2- and 8-hr post-dose. Brain was flushed with saline solution using a perfusion needle through the ascending aorta of the ventricle to remove any remaining blood prior to collection. Plasma and brain homogenate samples were stored at −80° C. prior to extraction for LC-MS/MS analysis.
Samples were analyzed by LC-MS/MS to quantify the amounts of test compound and control (psilocin). The calculation of the pharmacokinetic (PK) parameters (AUCt, AUCinf, Cmax, Tmax, T1/2, and Kel) can be performed using a non-compartmental analysis (trapezoidal method).

[2] = Compound stability in fasted state simulated gastric fluid (FaSSGF); assay type: in vitro ADME; settings: 37° C., 60 min vs T0
Experimental: Fasted state simulated gastric fluid (FaSSGF). FaSSGF was prepared according to the manufacturer instructions (Biorelevant, UK). Test compounds (2 μL of 200 μM solution) were added to a 96-well plate containing 198 μL FaSSGF per well. The mixture was incubation in a thermomixer at 37° C. for 60 min. Sample aliquots were removed (40 μL, from T0 and 60 min.) and quenched with acetonitrile containing 0.5 μM glyburide (IS), and the supernatant collected by centrifugation (2500 rpm, 15 min.). LC-MS was performed using an Agilent MSD (electrospray in positive ionization) equipped with a Kinetic C18 reverse-column. The percent of test compound remaining was calculated using the ratio of the peak area of intact test compound at 60 min. over T0. The percent of psilocin release was calculated by comparing the peak area of psilocin at 60 min, (for test compound) vs. peak area at T0 (2 μM psilocin).

[3] = biological target: human serotonin 5HT2A receptor (Homo sapiens, UniProt P28223); assay: 5HT2A receptor radioligand displacement assay; settings: displacement of [3H]-ketanserin or [3H]-LSD, 5HT2A membrane from HEK293
[4] = Compound stability, IP-One incubation; assay type: in vitro ADME; settings: IP-One stimulation medium on CHO-K1 cells expressing 5-HT2A, 2 μM, 60 min vs T0, 37° C.
Experimental: IP-One incubation. CHO-K1 cells expressing recombinant Serotonin receptor 5-HT2A (Perkin Elmer, Waltham, MA), were seeded in 96-well plates (˜80,000 cells/well) and treated with 28 μL (per well) of stimulation medium (IP-One HTRF® kit) containing test compounds (2 μM) for 1 hr in a CO2 incubator (5%) at 37° C. The cell-treated medium from 3 wells were pooled together to provide 40 μL for LC-MS analysis. Aliquots for each compound were collected at time zero (To, 100% intact test compound) and 60-min. The incubated medium (40 μL) was quenched with 120 μL of acetonitrile containing 0.5 μM glyburide (IS), and the supernatant was collected by centrifugation (2500 rpm, 15 min.). LC-MS was performed using an Agilent MSD (electrospray in positive ionization) equipped with a Kinetic C18 reverse-column. The percent of test compound remaining is calculated using the ratio of the peak areas of intact test compound at 60 min. over T0. The percent of psilocin release is calculated by comparing the peak area of psilocin at 60 min. (for test compound) vs. peak area at T0 (2 μM psilocin). Results are summarized in Table 1, (rel to % parent detected; and/or % psilocin detected).

human serotonin 5HT2A receptor, sequence (P28223 whole entry): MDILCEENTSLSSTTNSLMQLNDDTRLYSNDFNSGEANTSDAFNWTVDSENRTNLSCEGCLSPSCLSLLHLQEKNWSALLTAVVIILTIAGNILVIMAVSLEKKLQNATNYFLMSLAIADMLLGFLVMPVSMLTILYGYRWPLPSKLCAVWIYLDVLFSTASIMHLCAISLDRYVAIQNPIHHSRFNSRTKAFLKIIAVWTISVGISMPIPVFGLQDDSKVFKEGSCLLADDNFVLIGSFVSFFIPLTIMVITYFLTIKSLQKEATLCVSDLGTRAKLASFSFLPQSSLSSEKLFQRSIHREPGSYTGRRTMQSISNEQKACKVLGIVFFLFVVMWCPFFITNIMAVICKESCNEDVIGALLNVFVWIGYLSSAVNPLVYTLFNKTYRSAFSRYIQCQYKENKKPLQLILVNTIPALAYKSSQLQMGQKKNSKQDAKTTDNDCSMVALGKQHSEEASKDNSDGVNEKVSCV

Row | SMILES | Displacement activity relative to psilocin [3] | % parent compound [4] [%] | further results
1 | CN(C)CCc1c[nH]c2cccc(O)c12 [Psilocin, 4-hydroxy-N,N-dimethyltryptamine] | ++ | 87.4 | mean brain/plasma (B/P) ratio ([1]; 2-h post-dose, with estimated plasma concentration of 5 ng/mL): 11.2±4.3; psilocin in the brain at 8-h post-dose ([1]; 8-h post-dose): No psilocin in the brain was detected; Parent PK [brain] 2 h ([1]; brain, 2 h post-dose, parent compound): 54 ng/mL; Cmax ([1]; male, C57BL6, mouse, plasma, estimated, based on other pharmacokinetic data, read-out: Parent PK Cmax (estimated psilocin plasma concentration)): 5 ng/mL; % parent compound [2]: 72.2%
2 | COC(C)Oc1cccc2[nH]cc(CCN(C)C)c12 (centres unmarked) [Test compound A, 2-(4-(1-methoxyethoxy)-1H-indol-3-yl)-N,N-dimethylethan-1-amine] | – | – | concentration at 2 h ([1]; male, C57BL6, mouse, brain, 2 h post-dose, parent compound, read-out: Parent PK [brain] 2 h): 0.6 ng/mL; AUC ([1]; male, C57BL6, mouse, plasma, parent compound, read-out: Parent PK AUC): 51.4 ng·h/mL; Cmax ([1]; male, C57BL6, mouse, plasma, parent compound, read-out: Parent PK Cmax): 21.6 ng/mL
3 | CCOCOc1cccc2[nH]cc(CCN(C)C)c12 [drawing 86] | – | 91.9 | –
4 | COC(C)Oc1cccc2[nH]cc(CCN(C)C)c12 (centres unmarked) [drawing 87] | – | 88.8 | –
5 | COC(C)n1cc(CCN(C)C)c2c(O)cccc21 (centres unmarked) [drawing 88] | – | 82.5 | –
6 | COCCOCn1cc(CCN(C)C)c2c(OCOC)cccc21 [drawing 89] | – | 94.7 | –
7 | CCOCOc1cccc2[nH]cc(CCN(C)C)c12 [drawing 91] | – | – | % parent compound [2]: 97%
8 | COCCOCn1cc(CCN(C)C)c2c(OCOC)cccc21 [drawing 94] | – | – | % parent compound [2]: 20%
9 | CCOCOc1cccc2[nH]cc(CCN(C)C)c12 [drawing 96] | +++ | – | –
10 | COC(C)Oc1cccc2[nH]cc(CCN(C)C)c12 (centres unmarked) [drawing 97] | ++ | – | –
11 | COC(C)n1cc(CCN(C)C)c2c(O)cccc21 (centres unmarked) [drawing 98] | + | – | –
12 | COCCOCn1cc(CCN(C)C)c2c(OCOC)cccc21 [drawing 99] | + | – | –
